Laboratory results taken from US9409952B2, “Peptide-compound cyclization method” (Chugai Seiyaku Kabushiki Kaisha, priority 2011, dated 2016).
Where two headings read alike, the source gives them in different places. Starred links: 1 amine or outer side, 2 acyl side, 3 side chain; linkers in the order of their positions; H or OH if unused. Positions of bridges follow the written chain, without caps; N, C: chain ends. Non-standard residues stand in square brackets, D forms with d. Residues, ends and D or L forms follow the SMILES beside them. *: point of attachment. Phe(3-(CH2)4CO) = O=C([C@H](Cc1cccc(CCCCC(=O)[*:3])c1)N[*:1])[*:2]; NMeF = CN[C@@H](Cc1ccccc1)C(=O)O; NMeGABA = CN(CCCC(=O)[*:2])[*:1]; NMeI = CC[C@H](C)[C@H](NC)C(=O)O; NMeβAla = CN(CCC(=O)[*:2])[*:1]; NMeL = CN[C@@H](CC(C)C)C(=O)O; NMeV = CN[C@H](C(=O)O)C(C)C; NMeS = CN[C@@H](CO)C(=O)O; NMeA = CN[C@@H](C)C(=O)O; Piperidide = C1CCN(*)CC1; dNMeA = CN[C@H](C)C(=O)O; β3hA = C[C@H](N)CC(=O)O; Sar = CNCC(=O)O; tBu = CC(C)(C)*

Assays:
[1] = Metabolic stability in human hepatic microsome; format: in vitro ADME; settings: microsomes
[2] = PAMPA (parallel artificial membrane permeability assay); format: in vitro ADME; settings: PAMPA
Procedure, shortened: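 Artificial membrane was 10% (w/v) egg lecithin plus 0.5% (w/v) cholesterol in dodecane on a PVDF filter. A 10 mM DMSO stock was added at 0.5% (v/v) to donor buffer (50 mM MOPSO, pH 6.5, 5.0% glycocholic acid). After 18 h at 37 °C, LC/MS or LC/UV gave donor and acceptor levels for Pe.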

[3] = pH 7.4, human hepatic microsome, NADPH(+), read-out: CL NADPH(+)
[4] = membrane permeation rate (Pe), 50 mM MOPSO buffer pH 6.5 with 5.0% glycocholic acid, 37° C., 18 hours, read-out: iPAMPA Pe

| SMILES | microsomal CLint at 1 uM [1, 3] | Papp at 18 hours, 50 µM [2, 4] | microsomal CLint at 1 uM ([1]; human, pH 7.4, CL NADPH(+)) | Papp at 18 hours, 50 µM ([2]; pH 6.5) |
| --- | --- | --- | --- | --- |
| CC[C@H](C)[C@H]1C(=O)N[C@@H](CC(C)C)C(=O)N(C)[C@@H](CC(C)C)C(=O)N[C@H](C(=O)N2CCCCC2)CC(=O)N(C)CCCC(=O)N(C)[C@@H](CC(C)C)C(=O)N[C@@H]([C@@H](C)O)C(=O)N(C)[C@@H](C)C(=O)N[C@@H](C)C(=O)N(C)[C@@H](Cc2ccccc2)C(=O)N(C)[C@@H](Cc2ccccc2)C(=O)N1C [DP-249] ([NMeGABA][NMeL]T[NMeA]A[NMeF][NMeF][NMeI]L[NMeL]D-Piperidide; lactam N-11) | 151 µL/min/mg | 34 ×10⁻⁶ cm/s |  |  |
| C=C1CCC(=O)N[C@@H](CC(C)C)C(=O)N[C@@H](C(C)C)C(=O)N(C)[C@@H](CC(C)C)C(=O)N[C@@H](Cc2ccccc2)C(=O)N(C)[C@@H](Cc2ccccc2)C(=O)N[C@@H]([C@@H](C)CC)C(=O)N(C)[C@@H](C)C(=O)N[C@@H](CC(C)C)C(=O)N[C@@H]([C@@H](C)O)C(=O)N[C@H](C(=O)N2CCCCC2)Cc2ccc1cc2 [DP-888] | 69 µL/min/mg | 0.81 ×10⁻⁶ cm/s |  |  |
| CC[C@H](C)[C@@H]1NC(=O)[C@H](Cc2ccccc2)NC(=O)CCCCc2cccc(c2)C[C@@H](C(=O)N2CCCCC2)NC(=O)[C@H](CC(C)C)NC(=O)[C@H](CC(C)C)NC(=O)[C@H](C(C)C)NC(=O)[C@H](C)N(C)C(=O)[C@H](Cc2ccccc2)NC(=O)CNC(=O)[C@H]([C@@H](C)O)NC(=O)[C@H](CC(C)C)NC(=O)[C@@H]2CCCN2C1=O [DP-903] (FIPLTGF[NMeA]VLL[Phe(3-(CH2)4CO)]-Piperidide; lactam N-12) | 26 µL/min/mg | 0.34 ×10⁻⁶ cm/s |  |  |
| CC(C)C[C@H]1C(=O)N(C)[C@@H](CC(C)C)C(=O)N[C@H](C(=O)N(C)[C@@H](Cc2ccccc2)C(=O)N[C@@H](C)C(=O)N2CCCCC2)CC(=O)N(C)[C@@H](C)C(=O)N[C@@H](C(C)C)C(=O)N(C)[C@@H](Cc2ccccc2)C(=O)N(C)CC(=O)N[C@@H]([C@@H](C)O)C(=O)N(C)[C@@H](C)C(=O)N1C [DP-310] ([NMeA]V[NMeF][Sar]T[NMeA][NMeL][NMeL]D[NMeF]A-Piperidide; lactam N-9) |  |  | 143 µL/min/mg | 35 ×10⁻⁶ cm/s |
| CC(C)C[C@H]1C(=O)N[C@@H]([C@@H](C)O)C(=O)N(C)[C@@H](C)C(=O)N[C@H](C(=O)N2CCCCC2)CC(=O)N[C@H](C)C(=O)N(C)[C@@H](C)C(=O)N(C)[C@@H](Cc2ccccc2)C(=O)N1C [DP-538] ([dA][NMeA][NMeF][NMeL]T[NMeA]D-Piperidide; lactam N-7) | 37 µL/min/mg | 5.5 ×10⁻⁶ cm/s |  |  |
| CC(C)C[C@@H]1NC(=O)[C@H](Cc2ccccc2)N(C)C(=O)[C@@H](C(C)C)NC(=O)C[C@@H](C(=O)N2CCCCC2)NC(=O)[C@H](Cc2ccccc2)NC(=O)[C@H](CC(C)C)N(C)C(=O)[C@H]([C@@H](C)O)NC(=O)[C@H](CC(C)C)N(C)C1=O [DP-703] ([dV][NMeF]L[NMeL]T[NMeL]FD-Piperidide; lactam N-8) | 222 µL/min/mg | 34 ×10⁻⁶ cm/s |  |  |
| CC(C)C[C@@H]1NC(=O)[C@H](CC(C)C)N(C)C(=O)[C@H](C(C)C)N(C)C(=O)[C@H](C)NC(=O)CN(C)C(=O)[C@H](Cc2ccccc2)NC(=O)[C@H]([C@@H](C)O)NC(=O)[C@H](CC(C)C)N(C)C(=O)[C@H](C)N(C)C(=O)C[C@@H](C(=O)N2CCCCC2)NC(=O)[C@H](CC(C)C)N(C)C1=O [DP-479] ([NMeA][NMeL]TF[Sar]A[NMeV][NMeL]L[NMeL]D-Piperidide; lactam N-11) | 183 µL/min/mg | 46 ×10⁻⁶ cm/s |  |  |
| CC(C)C[C@@H]1NC(=O)[C@H]([C@@H](C)O)NC(=O)[C@H](CC(C)C)N(C)C(=O)CN(C)C(=O)[C@H](Cc2ccccc2)N(C)C(=O)[C@H](CC(C)C)NC(=O)C[C@@H](C(=O)N2CCCCC2)NC1=O [DP-723] (L[NMeF][Sar][NMeL]TLD-Piperidide; lactam N-7) | 154 µL/min/mg | 26 ×10⁻⁶ cm/s |  |  |
| CC[C@H](C)[C@@H]1NC(=O)[C@H](C)N(C)C(=O)[C@H]([C@@H](C)O)NC(=O)[C@H](C(C)C)N(C)C(=O)[C@H](CC(C)C)NC(=O)[C@H](CC(C)C)N(C)C(=O)[C@@H](C)N(C)C(=O)C[C@@H](C(=O)N2CCCCC2)NC(=O)[C@H](Cc2ccccc2)NC(=O)[C@H](C)NC(=O)[C@H](Cc2ccccc2)N(C)C1=O [DP-242] ([dNMeA][NMeL]L[NMeV]T[NMeA]I[NMeF]AFD-Piperidide; lactam N-11) | 43 µL/min/mg | 29 ×10⁻⁶ cm/s |  |  |
| CC[C@H](C)[C@@H]1NC(=O)[C@H](CC(C)C)N(C)C(=O)[C@H](Cc2ccccc2)N(C)C(=O)[C@H](CC(C)C)NC(=O)[C@@H](C)NC(=O)C[C@@H](C(=O)N2CCCCC2)NC(=O)[C@H](C)N(C)C(=O)[C@H](C)N(C)C(=O)CN(C)C(=O)[C@H]([C@@H](C)O)NC(=O)[C@H](Cc2ccccc2)N(C)C(=O)[C@H](C(C)C)N(C)C1=O [DP-131] ([dA]L[NMeF][NMeL]I[NMeV][NMeF]T[Sar][NMeA][NMeA]D-Piperidide; lactam N-12) | 48 µL/min/mg | 61 ×10⁻⁶ cm/s |  |  |
| CC(C)C[C@H]1C(=O)N[C@@H]([C@@H](C)O)C(=O)N(C)[C@@H](Cc2ccccc2)C(=O)N(C)[C@@H](CC(C)C)C(=O)NCC(=O)N(C)[C@@H](C(C)C)C(=O)N[C@@H](Cc2ccccc2)C(=O)N[C@H](C(=O)N(C)[C@@H](Cc2ccccc2)C(=O)N[C@@H](C)C(=O)N2CCCCC2)CC(=O)N(C)CCC(=O)N[C@@H](C(C)C)C(=O)N1C [DP-193] ([NMeβAla]V[NMeL]T[NMeF][NMeL]G[NMeV]FD[NMeF]A-Piperidide; lactam N-10) | 124 µL/min/mg | 53 ×10⁻⁶ cm/s |  |  |
| CC(C)C[C@H]1C(=O)N[C@@H](COC(C)(C)C)C(=O)N[C@H](C(=O)N2CCCCC2)CC(=O)N(C)CCC(=O)N(C)[C@@H](C)C(=O)N(C)[C@@H](Cc2ccccc2)C(=O)N(C)[C@@H](CC(C)C)C(=O)N[C@@H]([C@@H](C)O)C(=O)N(C)[C@@H](C)C(=O)N1C [DP-269] ([NMeβAla][NMeA][NMeF][NMeL]T[NMeA][NMeL]S(tBu)D-Piperidide; lactam N-9) | 58 µL/min/mg | 11 ×10⁻⁶ cm/s |  |  |
| CC[C@H](C)[C@@H]1NC(=O)[C@H](Cc2ccccc2)NC(=O)[C@H](C(C)C)N(C)C(=O)CCCN(C)C(=O)C[C@@H](C(=O)N2CCCCC2)NC(=O)[C@H](Cc2ccccc2)NC(=O)[C@H](CC(C)C)N(C)C(=O)CNC(=O)[C@H](CC(C)C)N(C)C(=O)[C@H](C)N(C)C(=O)[C@H]([C@@H](C)O)NC(=O)[C@H](CC(C)C)NC1=O [DP-273] ([NMeGABA][NMeV]FILT[NMeA][NMeL]G[NMeL]FD-Piperidide; lactam N-12) |  |  | 102 µL/min/mg | 21 ×10⁻⁶ cm/s |
| CC(C)C[C@@H]1NC(=O)[C@H](Cc2ccccc2)N(C)C(=O)CNC(=O)[C@H](Cc2ccccc2)NC(=O)[C@H]([C@@H](C)O)NC(=O)[C@H](CC(C)C)N(C)C(=O)CCN(C)C(=O)C[C@@H](C(=O)N2CCCCC2)NC(=O)[C@H](COC(C)(C)C)NC(=O)[C@H](CC(C)C)N(C)C1=O [DP-335] ([NMeβAla][NMeL]TFG[NMeF]L[NMeL]S(tBu)D-Piperidide; lactam N-10) | 109 µL/min/mg | 22 ×10⁻⁶ cm/s |  |  |
| CC(C)C[C@@H]1NC(=O)[C@@H]2CCCN2C(=O)[C@H](Cc2ccccc2)N(C)C(=O)[C@H](C)N(C)C(=O)[C@H]([C@@H](C)O)NC(=O)[C@@H](C(C)C)NC(=O)C[C@@H](C(=O)N2CCCCC2)NC(=O)[C@H](CC(C)C)N(C)C(=O)[C@H](C)N(C)C(=O)[C@H](Cc2ccccc2)NC(=O)[C@H](C(C)C)N(C)C1=O [DP-146] ([dV]T[NMeA][NMeF]PL[NMeV]F[NMeA][NMeL]D-Piperidide; lactam N-11) |  |  | 52 µL/min/mg | 26 ×10⁻⁶ cm/s |
| CC[C@H](C)[C@H]1C(=O)N(C)[C@@H](C)C(=O)N[C@H](C(=O)N2CCCCC2)CC(=O)N(C)CC(=O)N[C@@H](COC(C)(C)C)C(=O)N(C)CC(=O)N(C)[C@@H](CC(C)C)C(=O)N[C@@H]([C@@H](C)O)C(=O)N(C)[C@@H](Cc2ccccc2)C(=O)N(C)[C@@H](CC(C)C)C(=O)N1C [DP-76] ([Sar]S(tBu)[Sar][NMeL]T[NMeF][NMeL][NMeI][NMeA]D-Piperidide; lactam N-10) |  |  | 27 µL/min/mg | 16 ×10⁻⁶ cm/s |
| CC[C@H](C)[C@H]1C(=O)N[C@@H](C)CC(=O)N(C)[C@H](C)C(=O)N(C)[C@@H](CC(C)C)C(=O)N(C)[C@@H](CC(C)C)C(=O)N[C@@H]([C@@H](C)O)C(=O)N(C)CC(=O)N[C@@H](COC(C)(C)C)C(=O)N(C)[C@@H](CC(C)C)C(=O)N1C [DP-800] (cyclo([NMeI][β3hA][dNMeA][NMeL][NMeL]T[Sar]S(tBu)[NMeL])) | 58 µL/min/mg | 25 ×10⁻⁶ cm/s |  |  |
| CC(C)C[C@H]1C(=O)N(C)[C@@H](C(C)C)C(=O)N[C@@H](Cc2ccccc2)C(=O)N[C@H](C(=O)N(C)[C@@H](Cc2ccccc2)C(=O)N[C@@H](C)C(=O)N2CCCCC2)CC(=O)N[C@H](C)C(=O)N[C@@H](C(C)C)C(=O)N(C)[C@@H](CC(C)C)C(=O)N[C@@H]([C@@H](C)O)C(=O)N(C)[C@@H](Cc2ccccc2)C(=O)NCC(=O)N1C [DP-291] ([dA]V[NMeL]T[NMeF]G[NMeL][NMeV]FD[NMeF]A-Piperidide; lactam N-10) |  |  | 97 µL/min/mg | 14 ×10⁻⁶ cm/s |
| CC(C)C[C@@H]1NC(=O)[C@H](CO)N(C)C(=O)[C@H](CC(C)C)N(C)C(=O)[C@H](CC(C)C)N(C)C(=O)[C@H](CC(C)C)N(C)C(=O)[C@@H](C)NC(=O)[C@H](C)NC(=O)[C@H](CC(C)C)N(C)C(=O)C[C@H](C)NC(=O)[C@H](CC(C)C)N(C)C(=O)CN(C)C1=O [DP-649] (cyclo(A[dA][NMeL][NMeL][NMeL][NMeS]L[Sar][NMeL][β3hA][NMeL])) | 27 µL/min/mg | 22 ×10⁻⁶ cm/s |  |  |
